Earlier results as cited in patent EP1017675B1, “HIGHLY LIPOPHILIC CAMPTOTHECIN DERIVATIVES” (BIONUMERIK PHARMACEUTICALS, INC., priority 1997, dated 1998).

Settings: parenterally administered; fraction of the lactone form's potency

Structure (SMILES): CC[C@@](O)(C(=O)O)c1cc2n(c(=O)c1CO)Cc1cc3ccccc3nc1-2 [carboxylate species]
- antitumor potency relative to the lactone form: one-tenth
